Measurements reported in ChEMBL document CHEMBL1743341, “Cytochrome p450 enzymes mechanism based inhibitors: common sub-structures and reactivity” (Curr Drug Metab, 2005).
pKi: −log10 of the molar value. One block for each compound: values may come before it.

Key:
Cytochrome P450 3A4 [1] = target: T1, Cytochrome P450 3A4 (Homo sapiens, UniProt P08684); experiment: (§1) Mechanism based inhibition of human cytochrome P450 3A4; type: ADME
Cytochrome P450 3A4 [2] = target: T1, Cytochrome P450 3A4; experiment: Mechanism based inhibition of human cytochrome P450 3A4 measured by midazolam hydroxylation in vivo; type: ADME, organism-based
Cytochrome P450 3A4 [3] = target: T1, Cytochrome P450 3A4; experiment: as §1; type: ADME; remark: listed apart in the source
Cytochrome P450 2C9 [4] = target: T2, Cytochrome P450 2C9 (Homo sapiens, UniProt P11712); experiment: Mechanism based inhibition of human cytochrome P450 2C9 measured by tienilic acid 5-hydroxylation; type: ADME
T2 sequence (P11712 whole entry): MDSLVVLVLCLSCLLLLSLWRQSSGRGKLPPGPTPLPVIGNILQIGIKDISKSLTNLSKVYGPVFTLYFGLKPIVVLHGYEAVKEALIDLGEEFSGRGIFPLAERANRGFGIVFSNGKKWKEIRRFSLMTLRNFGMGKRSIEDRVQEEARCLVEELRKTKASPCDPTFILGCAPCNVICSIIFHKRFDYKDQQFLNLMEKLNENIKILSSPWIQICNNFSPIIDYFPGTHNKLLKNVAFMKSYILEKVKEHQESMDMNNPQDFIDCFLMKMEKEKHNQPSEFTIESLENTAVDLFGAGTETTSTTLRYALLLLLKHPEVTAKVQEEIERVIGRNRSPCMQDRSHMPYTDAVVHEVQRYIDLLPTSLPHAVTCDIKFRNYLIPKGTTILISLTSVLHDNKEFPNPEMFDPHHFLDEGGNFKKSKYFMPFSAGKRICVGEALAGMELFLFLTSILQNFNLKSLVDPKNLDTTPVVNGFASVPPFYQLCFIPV

Cytochrome P450 2C9 [5] = target: T2, Cytochrome P450 2C9; experiment: Mechanism based inhibition of human cytochrome P450 2C9 measured by Tolbutamide methyl hydroxylation; type: ADME
Cytochrome P450 3A4 [6] = target: T1, Cytochrome P450 3A4; experiment: (§2) Mechanism based inhibition of human cytochrome P450 3A4 measured by testosterone 6-beta hydroxylation; type: ADME
Cytochrome P450 1A2 = target: T3, Cytochrome P450 1A2 (Homo sapiens, UniProt P05177); experiment: Mechanism based inhibition of human cytochrome P450 1A2 measured by 7-ethoxyresorufin O-deethylation (EROD); type: ADME
T3 sequence (P05177 whole entry): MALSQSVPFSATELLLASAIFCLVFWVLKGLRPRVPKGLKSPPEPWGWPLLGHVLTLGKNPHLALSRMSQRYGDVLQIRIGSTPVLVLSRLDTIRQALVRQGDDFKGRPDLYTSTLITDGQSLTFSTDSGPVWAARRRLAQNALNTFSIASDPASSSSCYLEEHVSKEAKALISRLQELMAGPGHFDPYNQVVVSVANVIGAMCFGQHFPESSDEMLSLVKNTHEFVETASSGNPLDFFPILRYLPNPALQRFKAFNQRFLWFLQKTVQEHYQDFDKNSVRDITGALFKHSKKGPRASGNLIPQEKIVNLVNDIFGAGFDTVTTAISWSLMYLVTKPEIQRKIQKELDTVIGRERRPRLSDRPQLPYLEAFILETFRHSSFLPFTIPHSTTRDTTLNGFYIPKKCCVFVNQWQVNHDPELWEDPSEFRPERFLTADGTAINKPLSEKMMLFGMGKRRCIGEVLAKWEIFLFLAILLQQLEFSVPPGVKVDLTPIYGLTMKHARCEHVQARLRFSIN

CYP2B6 [7] = target: T4, CYP2B6 (Homo sapiens, UniProt P20813); experiment: (§3) Mechanism based inhibition of human cytochrome P450 2B6 using recombinant CYP2B6; conditions: human, recombinant CYP2B6
T4 sequence (P20813 whole entry): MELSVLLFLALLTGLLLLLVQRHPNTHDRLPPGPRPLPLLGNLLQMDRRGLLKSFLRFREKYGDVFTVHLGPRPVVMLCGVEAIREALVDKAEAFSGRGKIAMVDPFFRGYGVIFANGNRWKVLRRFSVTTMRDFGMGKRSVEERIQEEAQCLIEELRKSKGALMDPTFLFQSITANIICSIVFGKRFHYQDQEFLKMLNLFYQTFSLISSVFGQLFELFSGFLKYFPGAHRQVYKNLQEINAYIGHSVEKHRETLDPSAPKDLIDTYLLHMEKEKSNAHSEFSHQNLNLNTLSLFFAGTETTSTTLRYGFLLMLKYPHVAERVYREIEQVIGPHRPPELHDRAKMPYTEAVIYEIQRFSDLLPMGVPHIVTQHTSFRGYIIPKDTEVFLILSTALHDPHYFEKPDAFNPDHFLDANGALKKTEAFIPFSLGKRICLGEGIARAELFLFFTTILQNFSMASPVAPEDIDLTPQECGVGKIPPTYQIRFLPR

Cytochrome P450 2B6 [8] = target: T5, Cytochrome P450 2B6 (Homo sapiens, UniProt P20813); experiment: as §3
T5 sequence (P20813 whole entry): T4 sequence (P20813 whole entry)

CYP2B6 [9] = target: T4, CYP2B6; experiment: (§4) Mechanism based inhibition of human cytochrome P450 2B6 using human liver microsomes; conditions: human, human liver microsomes
Cytochrome P450 2B6 [10] = target: T5, Cytochrome P450 2B6; experiment: as §4
CYP2C8 [11] = target: T6, CYP2C8 (Homo sapiens, UniProt P10632); experiment: in vitro; conditions: recombinant CYP2C8, probe paclitaxel
T6 sequence (P10632 whole entry): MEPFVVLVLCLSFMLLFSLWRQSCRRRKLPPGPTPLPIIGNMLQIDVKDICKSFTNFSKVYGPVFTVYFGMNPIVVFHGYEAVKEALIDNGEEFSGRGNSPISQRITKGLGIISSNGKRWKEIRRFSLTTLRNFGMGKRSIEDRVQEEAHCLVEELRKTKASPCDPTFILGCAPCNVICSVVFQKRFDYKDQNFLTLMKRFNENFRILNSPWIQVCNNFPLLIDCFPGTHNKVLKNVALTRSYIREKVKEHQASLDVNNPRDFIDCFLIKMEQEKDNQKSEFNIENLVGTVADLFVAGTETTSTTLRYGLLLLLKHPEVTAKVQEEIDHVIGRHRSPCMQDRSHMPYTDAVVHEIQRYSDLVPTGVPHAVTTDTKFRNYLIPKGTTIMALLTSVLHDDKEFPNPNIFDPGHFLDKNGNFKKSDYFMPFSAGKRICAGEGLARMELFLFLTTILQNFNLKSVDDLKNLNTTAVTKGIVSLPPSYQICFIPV
Description: (§8) Mechanism based inhibition of human cytochrome P450 2C8 measured by paclitaxel hydroxylation using a recombinant system

Cytochrome P450 2C8 [12] = target: T7, Cytochrome P450 2C8 (Homo sapiens, UniProt P10632)
T7 sequence (P10632 whole entry): T6 sequence (P10632 whole entry)
Description: (§9) Mechanism based inhibition of human cytochrome P450 2C8 measured by paclitaxel hydroxylation using human liver microsomes

CYP2C8 [13] = target: T6, CYP2C8; experiment: in vitro; conditions: human liver microsomes, probe paclitaxel
Description: as §9

Cytochrome P450 2C8 [14] = target: T7, Cytochrome P450 2C8; remark: listed apart in the source
Description: as §8

Cytochrome P450 2D6 [15] = target: T8, Cytochrome P450 2D6 (Homo sapiens, UniProt P10635); experiment: (§5) Mechanism based inhibition of human cytochrome P450 2D6 measured by bufurarol hydroxylation using liver microsomes; type: ADME, Microsome
T8 sequence (P10635 whole entry): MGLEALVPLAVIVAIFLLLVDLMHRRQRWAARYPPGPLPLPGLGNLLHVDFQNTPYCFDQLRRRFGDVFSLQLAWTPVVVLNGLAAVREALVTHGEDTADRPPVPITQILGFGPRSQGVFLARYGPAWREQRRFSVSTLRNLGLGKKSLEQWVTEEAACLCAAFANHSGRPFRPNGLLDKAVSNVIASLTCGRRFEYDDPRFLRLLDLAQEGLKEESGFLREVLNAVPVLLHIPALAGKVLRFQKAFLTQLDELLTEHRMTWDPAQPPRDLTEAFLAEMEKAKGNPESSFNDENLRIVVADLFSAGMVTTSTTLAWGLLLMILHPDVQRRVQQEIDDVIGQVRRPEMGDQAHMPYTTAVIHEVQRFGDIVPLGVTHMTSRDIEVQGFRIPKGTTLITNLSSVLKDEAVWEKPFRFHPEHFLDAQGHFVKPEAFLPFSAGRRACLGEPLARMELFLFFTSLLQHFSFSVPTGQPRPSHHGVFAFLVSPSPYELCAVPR

CYP2D6 [16] = target: T9, CYP2D6 (Homo sapiens, UniProt P10635); experiment: as §5; type: ADME, Microsome; conditions: probe bufurarol
T9 sequence (P10635 whole entry): as above

Cytochrome P450 3A4 [17] = target: T1, Cytochrome P450 3A4; experiment: Mechanism based inhibition of human cytochrome P450 3A4 measured by 1'-hydroxymidazolam production; type: ADME
Cytochrome P450 2E1 [18] = target: T10, Cytochrome P450 2E1 (Homo sapiens, UniProt P05181); experiment: (§6) Mechanism based inhibition of human cytochrome P450 2E1; type: ADME
T10 sequence (P05181 whole entry): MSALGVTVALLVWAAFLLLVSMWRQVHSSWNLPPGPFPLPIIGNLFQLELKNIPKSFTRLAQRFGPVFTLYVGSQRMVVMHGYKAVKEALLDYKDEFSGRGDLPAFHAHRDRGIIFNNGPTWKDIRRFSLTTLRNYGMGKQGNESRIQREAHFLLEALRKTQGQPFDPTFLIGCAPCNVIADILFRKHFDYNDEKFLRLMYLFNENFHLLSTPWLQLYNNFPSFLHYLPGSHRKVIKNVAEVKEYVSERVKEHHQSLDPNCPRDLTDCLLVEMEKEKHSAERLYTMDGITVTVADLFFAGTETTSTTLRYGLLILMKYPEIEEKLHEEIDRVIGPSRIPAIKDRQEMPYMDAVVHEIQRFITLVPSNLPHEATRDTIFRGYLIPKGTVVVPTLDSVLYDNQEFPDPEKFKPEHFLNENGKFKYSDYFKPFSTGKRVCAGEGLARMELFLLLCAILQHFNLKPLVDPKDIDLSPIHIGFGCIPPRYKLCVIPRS

CYP2E1 = CYP2E1 (Homo sapiens, UniProt P05181); experiment: as §6; type: ADME; conditions: human
CYP2E1, sequence (P05181 whole entry): as above

Cytochrome P450 2B1 = target: T11, Cytochrome P450 2B1 (Rattus norvegicus, UniProt P00176); experiment: Mechanism based inhibition of rat cytochrome P450 CYP2B1 measured by 7-EFC O-deethylation activity; type: ADME; conditions: rat
T11 sequence (P00176 whole entry): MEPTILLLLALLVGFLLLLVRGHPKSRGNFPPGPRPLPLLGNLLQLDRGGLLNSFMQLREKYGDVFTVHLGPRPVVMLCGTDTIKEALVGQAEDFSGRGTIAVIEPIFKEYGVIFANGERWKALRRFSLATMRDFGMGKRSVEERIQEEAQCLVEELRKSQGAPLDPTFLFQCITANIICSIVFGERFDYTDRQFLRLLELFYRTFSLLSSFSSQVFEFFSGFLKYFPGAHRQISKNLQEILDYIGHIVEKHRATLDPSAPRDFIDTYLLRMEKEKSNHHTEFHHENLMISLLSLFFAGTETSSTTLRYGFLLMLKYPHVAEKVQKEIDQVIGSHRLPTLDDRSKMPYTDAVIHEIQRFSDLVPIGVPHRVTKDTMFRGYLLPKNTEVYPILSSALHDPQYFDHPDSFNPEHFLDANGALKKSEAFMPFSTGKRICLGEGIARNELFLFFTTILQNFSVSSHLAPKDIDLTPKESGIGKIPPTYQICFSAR

Cytochrome P450 2E1 [19] = target: T10, Cytochrome P450 2E1; experiment: Mechanism based inhibition of human cytochrome P450 2E1 measured by chlorzoxazone 6-hydroxylase activity; type: ADME
CYP3A4 = CYP3A4 (Homo sapiens, UniProt P08684); experiment: as §2; type: ADME; conditions: human, probe testosterone (6-beta hydroxylation)
CYP3A4, sequence (P08684 whole entry): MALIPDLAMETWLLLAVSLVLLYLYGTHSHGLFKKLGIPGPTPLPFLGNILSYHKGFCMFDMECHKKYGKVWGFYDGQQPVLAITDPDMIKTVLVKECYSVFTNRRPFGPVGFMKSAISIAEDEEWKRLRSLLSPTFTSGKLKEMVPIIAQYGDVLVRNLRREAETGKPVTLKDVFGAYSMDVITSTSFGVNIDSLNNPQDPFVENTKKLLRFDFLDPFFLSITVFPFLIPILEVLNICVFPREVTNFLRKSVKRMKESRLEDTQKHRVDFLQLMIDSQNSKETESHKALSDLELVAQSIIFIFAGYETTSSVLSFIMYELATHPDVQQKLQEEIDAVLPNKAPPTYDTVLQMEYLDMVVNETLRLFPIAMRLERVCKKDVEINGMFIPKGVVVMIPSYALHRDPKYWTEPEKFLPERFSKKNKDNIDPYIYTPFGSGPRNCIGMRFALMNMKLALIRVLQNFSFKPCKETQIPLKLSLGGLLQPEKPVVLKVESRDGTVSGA

Cytochrome P450 3A4 [20] = target: T1, Cytochrome P450 3A4; experiment: Mechanism based inhibition of human cytochrome P450 3A4, partition ratio; type: ADME
Cytochrome P450 2D6 [21] = target: T8, Cytochrome P450 2D6; experiment: (§7) Mechanism based inhibition of human cytochrome P450 2D6 measured by […] 1'-hydroxylation; type: ADME
CYP2D6 [22] = target: T9, CYP2D6; experiment: as §7; type: ADME; conditions: human, probe bufurarol

T1 sequence (P08684 whole entry): as above

SMILES: C#C[C@]1(O)C=C[C@H]2[C@@H]3CCC4=CC(=O)CC[C@@H]4[C@H]3CC[C@@]21CC [GESTODENE]
mechanism based inhibition (Cytochrome P450 3A4 [1]): Cytochrome P450 mechanistic inhibitor: PMID 9385444
mechanism based inhibition (Cytochrome P450 3A4 [2]): Cytochrome P450 mechanistic inhibitor: PMID 11012556
mechanism based inhibition (Cytochrome P450 3A4 [3]): Cytochrome P450 mechanistic inhibitor: PMID 2133086

SMILES: O=C(O)COc1ccc(C(=O)c2cccs2)c(Cl)c1Cl
mechanism based inhibition (Cytochrome P450 2C9 [4]): Cytochrome P450 mechanistic inhibitor: PMID 8944768

SMILES: CCOP(=S)(OCC)Oc1ccc([N+](=O)[O-])cc1 [PARATHION]
mechanism based inhibition (Cytochrome P450 2C9 [5]): Cytochrome P450 mechanistic inhibitor: PMID 9023313
mechanism based inhibition (Cytochrome P450 3A4 [6]): Cytochrome P450 mechanistic inhibitor: PMID 9023313
mechanism based inhibition (Cytochrome P450 1A2): Cytochrome P450 mechanistic inhibitor: PMID 9023313

kinact (CYP2B6 [7]): 0.0025 s⁻¹
pKi (Cytochrome P450 2B6 [8]): 5.96
kinact (CYP2B6 [9]): 0.00583 s⁻¹
pKi (Cytochrome P450 2B6 [10]): 6.30
SMILES: COC(=O)[C@H](c1ccccc1Cl)N1CCc2sccc2C1 [CLOPIDOGREL]

SMILES: NNCCc1ccccc1 [PHENELZINE]
kinact (CYP2C8 [11]): 0.00405 s⁻¹
pKi (Cytochrome P450 2C8 [12]): 4.27
kinact (CYP2C8 [13]): 0.00283 s⁻¹
pKi (Cytochrome P450 2C8 [14]): 5.92

SMILES: CCN(CC1CCN(S(C)(=O)=O)CC1)[C@@H](C)Cc1ccc2c(c1)CCO2
pKi (Cytochrome P450 2D6 [15]): 5.85
kinact (CYP2D6 [16]): 0.38 s⁻¹

SMILES: CCc1nn(CCCN2CCN(c3cccc(Cl)c3)CC2)c(=O)n1CCOc1ccccc1 [NEFAZODONE]
mechanism based inhibition (Cytochrome P450 3A4 [17]): Cytochrome P450 mechanistic inhibitor: PMID 15523046

SMILES: S=C=NCCc1ccccc1 [PHENETHYLISOTHIOCYANATE]
pKi (Cytochrome P450 2E1 [18]): 5.00
kinact (CYP2E1): 0.00565 s⁻¹
mechanism based inhibition (Cytochrome P450 2B1): Cytochrome P450 mechanistic inhibitor: PMID 11454729

SMILES: FC(F)(F)C(Cl)Br (centres undefined) [HALOTHANE]
mechanism based inhibition (Cytochrome P450 2E1 [19]): Cytochrome P450 mechanistic inhibitor: PMID 8902272

pKi (Cytochrome P450 3A4 [6]): 5.12
kinact (CYP3A4): 0.027 s⁻¹
Partition ratio (Cytochrome P450 3A4 [20]): 1.4
pKi (Cytochrome P450 2D6 [21]): 4.49
kinact (CYP2D6 [22]): 0.003 s⁻¹
SMILES: CC(C)(C)NC(=O)[C@@H]1CN(Cc2cnc3occc3c2)CCN1C[C@@H](O)C[C@@H](Cc1ccccc1)C(=O)N[C@H]1c2ccccc2C[C@H]1O
mechanism based inhibition (Cytochrome P450 3A4 [1]): Cytochrome P450 mechanistic inhibitor: PMID 10757976
mechanism based inhibition (Cytochrome P450 3A4 [6]): Cytochrome P450 mechanistic inhibitor: PMID 8531125
